Source: ChEMBL document CHEMBL1201862, “PubChem BioAssay data set” (2004)
Active and inactive are the calls of the source.

Columns and labels:
[1] = target: T1, Neuropeptide Y receptor type 1 (Homo sapiens, UniProt P25929); assay: IC50 of human NPY-Y1 blockers – cell-based, dose response (AID 1277); type: functional
T1 sequence (P25929 whole entry): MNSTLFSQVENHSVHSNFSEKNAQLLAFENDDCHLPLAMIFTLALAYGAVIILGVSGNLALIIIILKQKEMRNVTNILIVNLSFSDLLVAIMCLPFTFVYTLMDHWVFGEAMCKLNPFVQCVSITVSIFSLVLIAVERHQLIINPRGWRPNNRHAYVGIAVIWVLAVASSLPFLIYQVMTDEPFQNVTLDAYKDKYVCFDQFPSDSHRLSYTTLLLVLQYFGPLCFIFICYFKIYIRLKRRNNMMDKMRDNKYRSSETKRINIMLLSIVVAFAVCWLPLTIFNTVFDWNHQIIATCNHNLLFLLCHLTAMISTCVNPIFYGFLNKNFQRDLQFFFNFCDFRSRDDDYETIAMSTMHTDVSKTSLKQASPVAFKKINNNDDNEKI

[2] = target: T2, Neuropeptide Y receptor type 2 (Homo sapiens, UniProt P49146); assay: IC50 for human NPY-Y2 blockade – cell-based, counter-screen for NPY-Y1 antagonist project, dose response (AID 1278); type: functional
T2 sequence (P49146 whole entry): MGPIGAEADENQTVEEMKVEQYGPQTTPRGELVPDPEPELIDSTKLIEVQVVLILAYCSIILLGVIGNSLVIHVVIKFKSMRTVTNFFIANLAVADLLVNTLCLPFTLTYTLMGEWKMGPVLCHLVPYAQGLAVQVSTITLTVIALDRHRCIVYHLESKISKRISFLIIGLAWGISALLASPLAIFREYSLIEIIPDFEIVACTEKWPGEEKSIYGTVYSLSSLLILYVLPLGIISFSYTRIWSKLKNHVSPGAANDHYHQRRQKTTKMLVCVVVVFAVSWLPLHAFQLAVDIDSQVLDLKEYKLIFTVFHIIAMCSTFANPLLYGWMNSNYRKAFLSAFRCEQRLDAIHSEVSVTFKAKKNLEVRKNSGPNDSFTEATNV

[3] = target: Cytochrome P450 2C19 (Homo sapiens, UniProt P33261); assay: Cytochrome panel assay with activity outcomes. Panel member name: p450-cyp2c19 Compounds with AC50 equal or less than 10 uM are considered active; type: functional; conditions: read-out: AC50
Chain of Cytochrome P450 2C19 (P33261 whole entry): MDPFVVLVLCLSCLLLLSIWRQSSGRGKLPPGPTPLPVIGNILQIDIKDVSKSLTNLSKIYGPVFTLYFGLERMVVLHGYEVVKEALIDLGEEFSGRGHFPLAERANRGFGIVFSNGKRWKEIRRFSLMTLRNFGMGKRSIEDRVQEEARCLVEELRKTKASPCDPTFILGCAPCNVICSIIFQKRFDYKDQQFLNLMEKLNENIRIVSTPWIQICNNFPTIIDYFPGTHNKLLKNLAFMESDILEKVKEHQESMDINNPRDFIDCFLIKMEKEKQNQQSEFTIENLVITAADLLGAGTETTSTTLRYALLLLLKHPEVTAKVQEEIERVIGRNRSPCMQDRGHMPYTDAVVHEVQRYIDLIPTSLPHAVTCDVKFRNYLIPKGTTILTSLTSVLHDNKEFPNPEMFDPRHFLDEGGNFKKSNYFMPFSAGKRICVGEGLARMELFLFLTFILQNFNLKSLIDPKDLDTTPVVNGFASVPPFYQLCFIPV

[4] = target: Cytochrome P450 3A4 (Homo sapiens, UniProt P08684);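 note: CYP3A4 tested as one member of a cytochrome P450 panel screen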
Chain of Cytochrome P450 3A4 (P08684 whole entry): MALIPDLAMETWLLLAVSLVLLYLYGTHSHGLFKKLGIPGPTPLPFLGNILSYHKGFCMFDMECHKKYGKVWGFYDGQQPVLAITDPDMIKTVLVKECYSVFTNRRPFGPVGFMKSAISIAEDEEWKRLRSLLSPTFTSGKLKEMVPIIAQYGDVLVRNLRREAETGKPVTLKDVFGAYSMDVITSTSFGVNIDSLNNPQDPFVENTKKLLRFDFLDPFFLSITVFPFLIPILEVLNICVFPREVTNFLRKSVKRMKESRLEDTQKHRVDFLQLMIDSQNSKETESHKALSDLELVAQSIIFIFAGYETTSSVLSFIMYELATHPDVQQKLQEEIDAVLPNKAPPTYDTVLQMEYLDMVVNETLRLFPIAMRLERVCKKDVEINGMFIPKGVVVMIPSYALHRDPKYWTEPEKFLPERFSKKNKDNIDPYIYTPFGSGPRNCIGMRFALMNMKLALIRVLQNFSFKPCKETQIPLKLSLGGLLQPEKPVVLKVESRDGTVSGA

[5] = target: T3, Protein skinhead-1 (Caenorhabditis elegans, UniProt P34707); type: functional
T3 sequence (P34707 whole entry): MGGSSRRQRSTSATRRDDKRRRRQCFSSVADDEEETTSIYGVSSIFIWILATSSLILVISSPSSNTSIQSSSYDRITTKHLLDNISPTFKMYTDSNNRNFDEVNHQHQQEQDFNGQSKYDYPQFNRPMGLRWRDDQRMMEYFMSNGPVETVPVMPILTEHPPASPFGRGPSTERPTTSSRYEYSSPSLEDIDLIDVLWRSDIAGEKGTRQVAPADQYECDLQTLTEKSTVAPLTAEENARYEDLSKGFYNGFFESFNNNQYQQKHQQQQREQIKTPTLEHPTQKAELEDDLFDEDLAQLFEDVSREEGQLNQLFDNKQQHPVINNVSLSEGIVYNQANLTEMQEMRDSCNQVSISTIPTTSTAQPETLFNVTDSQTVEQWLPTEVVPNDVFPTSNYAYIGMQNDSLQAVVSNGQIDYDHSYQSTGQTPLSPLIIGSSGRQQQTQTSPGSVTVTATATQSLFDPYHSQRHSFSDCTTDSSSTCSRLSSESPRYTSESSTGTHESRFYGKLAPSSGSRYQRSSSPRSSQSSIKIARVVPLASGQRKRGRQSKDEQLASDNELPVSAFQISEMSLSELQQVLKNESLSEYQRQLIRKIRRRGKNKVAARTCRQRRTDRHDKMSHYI

[6] = target: Voltage-gated inwardly rectifying potassium channel KCNH2 (Homo sapiens, UniProt Q12809); assay: concentration-dependent hERG rescue from blockers – cell-based, thallium flux, dose response (AID 2121); type: ADME
Chain of Voltage-gated inwardly rectifying potassium channel KCNH2 (Q12809 whole entry): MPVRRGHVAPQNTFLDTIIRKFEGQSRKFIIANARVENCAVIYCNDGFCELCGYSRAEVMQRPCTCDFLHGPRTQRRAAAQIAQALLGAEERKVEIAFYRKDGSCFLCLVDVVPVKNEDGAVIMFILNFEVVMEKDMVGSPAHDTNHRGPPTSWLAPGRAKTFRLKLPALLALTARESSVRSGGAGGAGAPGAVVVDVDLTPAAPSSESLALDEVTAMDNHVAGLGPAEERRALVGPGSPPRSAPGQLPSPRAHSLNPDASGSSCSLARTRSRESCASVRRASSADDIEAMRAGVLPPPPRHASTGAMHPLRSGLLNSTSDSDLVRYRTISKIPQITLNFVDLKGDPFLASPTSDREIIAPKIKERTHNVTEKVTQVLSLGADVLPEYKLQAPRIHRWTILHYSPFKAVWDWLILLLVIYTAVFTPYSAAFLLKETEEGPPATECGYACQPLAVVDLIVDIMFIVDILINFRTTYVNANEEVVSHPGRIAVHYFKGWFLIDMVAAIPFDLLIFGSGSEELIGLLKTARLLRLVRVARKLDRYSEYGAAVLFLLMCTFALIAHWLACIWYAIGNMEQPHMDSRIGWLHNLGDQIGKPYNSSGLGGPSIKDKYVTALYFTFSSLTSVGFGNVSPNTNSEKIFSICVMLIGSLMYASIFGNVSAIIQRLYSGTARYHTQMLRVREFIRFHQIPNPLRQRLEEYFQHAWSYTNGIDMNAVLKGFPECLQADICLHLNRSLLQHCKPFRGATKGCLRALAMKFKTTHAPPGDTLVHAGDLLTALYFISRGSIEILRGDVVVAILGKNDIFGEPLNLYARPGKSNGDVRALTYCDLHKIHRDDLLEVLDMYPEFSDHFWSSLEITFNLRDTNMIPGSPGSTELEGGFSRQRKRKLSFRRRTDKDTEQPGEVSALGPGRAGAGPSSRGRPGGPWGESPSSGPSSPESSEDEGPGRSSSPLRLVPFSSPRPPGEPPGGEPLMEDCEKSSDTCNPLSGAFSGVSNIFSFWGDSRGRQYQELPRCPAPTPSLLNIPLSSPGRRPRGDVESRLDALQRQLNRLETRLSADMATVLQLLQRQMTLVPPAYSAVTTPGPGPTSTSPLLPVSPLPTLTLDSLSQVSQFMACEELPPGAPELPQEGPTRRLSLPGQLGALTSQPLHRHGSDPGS

[7] = target: Cytochrome P450 2C9 (Homo sapiens, UniProt P11712)
Chain of Cytochrome P450 2C9 (P11712 whole entry): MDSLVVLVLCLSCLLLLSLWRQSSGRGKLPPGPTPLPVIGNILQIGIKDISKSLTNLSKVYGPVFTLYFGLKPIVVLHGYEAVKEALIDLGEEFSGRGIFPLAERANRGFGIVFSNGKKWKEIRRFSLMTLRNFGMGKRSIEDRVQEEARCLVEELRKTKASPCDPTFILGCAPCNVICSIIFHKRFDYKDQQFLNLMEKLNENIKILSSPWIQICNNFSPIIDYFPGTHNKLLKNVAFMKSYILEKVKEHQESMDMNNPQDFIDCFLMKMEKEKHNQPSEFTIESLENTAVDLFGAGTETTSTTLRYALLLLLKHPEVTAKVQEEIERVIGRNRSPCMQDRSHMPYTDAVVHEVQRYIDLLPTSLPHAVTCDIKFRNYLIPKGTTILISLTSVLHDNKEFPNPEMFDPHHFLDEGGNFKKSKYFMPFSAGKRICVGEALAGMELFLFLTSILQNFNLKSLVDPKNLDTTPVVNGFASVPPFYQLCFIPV

[8] = viability of PTEN-deleted HCT116 cells – cell-based, HCT116 PTEN knockout, dose response (AID 1047); type: functional;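 note: HCT116 colon tumor cells with PTEN knocked out; cells exposed to compound for 60 hours before readout; potency for loss of cell viability measured by luminescence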
[9] = target: Neurotensin receptor type 1 (Homo sapiens, UniProt P30989); type: functional;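 note: Image-based confirmatory dose-response assay measuring agonist activity at NTR1; NTR1-expressing U2OS osteosarcoma cells imaged for beta-arrestin GFP spot formation; agonist potency where compounds increase beta-arrestin recruitment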
Chain of Neurotensin receptor type 1 (P30989 whole entry): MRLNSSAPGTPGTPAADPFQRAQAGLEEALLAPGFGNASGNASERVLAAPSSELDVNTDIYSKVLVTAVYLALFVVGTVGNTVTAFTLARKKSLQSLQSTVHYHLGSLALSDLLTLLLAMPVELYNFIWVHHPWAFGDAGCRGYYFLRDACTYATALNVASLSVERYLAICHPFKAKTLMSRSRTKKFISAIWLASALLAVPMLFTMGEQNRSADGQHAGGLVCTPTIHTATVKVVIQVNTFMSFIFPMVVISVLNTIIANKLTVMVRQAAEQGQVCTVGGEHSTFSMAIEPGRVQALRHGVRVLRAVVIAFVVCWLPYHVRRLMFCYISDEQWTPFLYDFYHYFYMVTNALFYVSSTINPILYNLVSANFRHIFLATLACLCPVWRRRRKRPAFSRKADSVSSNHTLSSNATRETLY

[10] = blockade of melanocortin 4 receptor signaling – cell-based, plate reader, cherry pick, counter-screen for LGR2 antagonist project, dose response (AID 743444); type: functional;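 note: transfected HEK 293 cells stimulated with alpha-MSH peptide; potency of inhibitors of the alpha-MSH evoked signal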
[11] = A549 cell cytotoxicity, dose response, cytotoxicity control, plate reader, cherry-pick, antagonist series (AID 743412); type: functional, cell-based
[12] = M. tuberculosis H37Rv growth inhibitors, H37Rv strain (AID 1626); type: functional
[13] = viability of HCT116 lacking mutant beta-catenin – cell-based, human colon tumor, dose response (AID 1045); type: functional;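 note: HCT116 colon tumor cells with beta catenin knocked out; cells exposed to compound for 60 hours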
[14] = toxicity toward HepG2 liver cells – cell-based, plate reader, cherry-pick, antagonist series, cytotoxicity control, dose response (AID 743416); type: functional
[15] = blockers of bursicon-stimulated LGR2 cAMP reporter – cell-based, HEK293, CRE-luciferase reporter, cherry pick, set 2, dose response (AID 743343); type: functional;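 note: transfected cells were stimulated with diluted bursicon conditioned medium after compound addition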
[16] = viability loss in HEK293 cells – cell-based, plate reader, cherry-picked samples, cytotoxicity control, dose response (AID 743446); type: functional
[17] = target: Intestinal-type alkaline phosphatase (Mus musculus, UniProt P24822); assay: PubChem AID 488785; type: functional
Chain of Intestinal-type alkaline phosphatase (Mus musculus, UniProt P24822) (P24822 whole entry): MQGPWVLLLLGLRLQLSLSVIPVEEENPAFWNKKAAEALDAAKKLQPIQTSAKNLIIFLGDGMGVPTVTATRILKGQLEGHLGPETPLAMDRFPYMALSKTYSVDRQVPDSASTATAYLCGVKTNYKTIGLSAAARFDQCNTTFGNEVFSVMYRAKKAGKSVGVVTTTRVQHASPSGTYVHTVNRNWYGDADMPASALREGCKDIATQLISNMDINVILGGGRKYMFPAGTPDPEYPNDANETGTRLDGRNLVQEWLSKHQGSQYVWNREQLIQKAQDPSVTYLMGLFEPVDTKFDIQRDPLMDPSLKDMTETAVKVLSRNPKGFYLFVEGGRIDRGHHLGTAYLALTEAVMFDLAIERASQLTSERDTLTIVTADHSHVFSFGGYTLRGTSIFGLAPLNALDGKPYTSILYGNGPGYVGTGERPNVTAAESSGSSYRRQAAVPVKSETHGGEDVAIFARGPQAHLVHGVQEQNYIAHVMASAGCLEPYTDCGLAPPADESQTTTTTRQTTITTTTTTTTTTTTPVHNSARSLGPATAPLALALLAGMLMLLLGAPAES

[18] = target: Induced myeloid leukemia cell differentiation protein Mcl-1 (Homo sapiens, UniProt Q07820); assay: blockers of MCL1 binding to BIM peptide – biochemical, fluorescence polarization, BIM-BH3 peptide, 1536-well, dose response (AID 2217)
Chain of Induced myeloid leukemia cell differentiation protein Mcl-1 (Q07820 whole entry): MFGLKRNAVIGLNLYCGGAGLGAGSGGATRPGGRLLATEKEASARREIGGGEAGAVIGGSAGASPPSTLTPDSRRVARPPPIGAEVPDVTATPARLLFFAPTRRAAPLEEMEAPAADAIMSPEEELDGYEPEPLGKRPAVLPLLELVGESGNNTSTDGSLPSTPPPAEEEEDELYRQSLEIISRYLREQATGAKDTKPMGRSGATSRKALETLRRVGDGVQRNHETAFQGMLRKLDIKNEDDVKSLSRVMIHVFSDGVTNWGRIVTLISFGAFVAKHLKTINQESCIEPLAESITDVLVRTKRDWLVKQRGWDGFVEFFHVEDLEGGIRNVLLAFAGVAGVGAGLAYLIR

[19] = target: Intestinal-type alkaline phosphatase (Homo sapiens, UniProt P09923); assay: inhibition of human intestinal alkaline phosphatase – biochemical, dose response (AID 488876); type: functional
Chain of Intestinal-type alkaline phosphatase (Homo sapiens, UniProt P09923) (P09923 whole entry): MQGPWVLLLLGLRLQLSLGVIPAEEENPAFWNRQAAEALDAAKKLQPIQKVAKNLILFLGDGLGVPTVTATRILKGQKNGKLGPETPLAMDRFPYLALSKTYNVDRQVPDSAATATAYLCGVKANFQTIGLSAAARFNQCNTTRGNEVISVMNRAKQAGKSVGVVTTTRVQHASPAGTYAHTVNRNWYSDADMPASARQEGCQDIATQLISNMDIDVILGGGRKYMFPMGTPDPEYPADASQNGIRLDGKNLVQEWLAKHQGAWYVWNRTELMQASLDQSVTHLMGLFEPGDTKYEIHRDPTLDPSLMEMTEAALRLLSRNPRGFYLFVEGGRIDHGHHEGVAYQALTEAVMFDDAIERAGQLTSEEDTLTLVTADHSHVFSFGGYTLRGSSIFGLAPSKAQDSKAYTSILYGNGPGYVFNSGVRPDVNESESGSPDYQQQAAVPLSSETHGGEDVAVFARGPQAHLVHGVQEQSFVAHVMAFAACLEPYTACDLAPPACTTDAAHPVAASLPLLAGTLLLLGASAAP

[20] = target: Bcl-2-like protein 1 (Homo sapiens, UniProt Q07817); assay: blockers of BCLXL peptide binding – biochemical, fluorescence polarization, 1536-well, selectivity assay for MCL1 inhibitor project, dose response (AID 2218)
Chain of Bcl-2-like protein 1 (Q07817 whole entry): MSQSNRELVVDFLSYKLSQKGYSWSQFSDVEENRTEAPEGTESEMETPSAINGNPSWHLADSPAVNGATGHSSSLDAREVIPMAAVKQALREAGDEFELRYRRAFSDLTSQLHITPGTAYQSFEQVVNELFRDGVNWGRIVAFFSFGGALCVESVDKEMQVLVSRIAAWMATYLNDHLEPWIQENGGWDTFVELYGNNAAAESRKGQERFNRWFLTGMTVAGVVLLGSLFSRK

[21] = target: T4, Alkaline phosphatase, tissue-nonspecific isozyme (Homo sapiens, UniProt P05186); assay: TNAP enzyme inhibition by screening hits, dose response, selectivity assay for mouse IAP inhibitor project, biochemical, human TNAP, uHTS hits (AID 488906); type: functional
T4 sequence (P05186 whole entry): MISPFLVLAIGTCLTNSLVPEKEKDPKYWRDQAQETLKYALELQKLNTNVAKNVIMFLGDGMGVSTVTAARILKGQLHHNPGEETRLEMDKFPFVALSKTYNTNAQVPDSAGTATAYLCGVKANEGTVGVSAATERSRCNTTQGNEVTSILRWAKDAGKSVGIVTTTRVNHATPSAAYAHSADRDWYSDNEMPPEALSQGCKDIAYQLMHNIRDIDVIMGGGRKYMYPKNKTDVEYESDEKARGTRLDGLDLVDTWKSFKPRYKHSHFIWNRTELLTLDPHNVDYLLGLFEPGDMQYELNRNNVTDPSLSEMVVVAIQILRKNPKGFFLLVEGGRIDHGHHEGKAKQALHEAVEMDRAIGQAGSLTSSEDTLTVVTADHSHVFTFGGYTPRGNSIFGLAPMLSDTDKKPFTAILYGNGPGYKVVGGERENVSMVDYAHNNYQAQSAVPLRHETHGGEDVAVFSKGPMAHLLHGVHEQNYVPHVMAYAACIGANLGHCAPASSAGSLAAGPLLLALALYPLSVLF

[22] = target: T5, Carboxy-terminal domain RNA polymerase II polypeptide A small phosphatase 1 (Homo sapiens, UniProt Q9GZU7); assay: CTDSP1 inhibitors, concentration-response, biochemical, absorbance readout, ultra-high-throughput screen actives (AID 540297); type: functional
T5 sequence (Q9GZU7 whole entry): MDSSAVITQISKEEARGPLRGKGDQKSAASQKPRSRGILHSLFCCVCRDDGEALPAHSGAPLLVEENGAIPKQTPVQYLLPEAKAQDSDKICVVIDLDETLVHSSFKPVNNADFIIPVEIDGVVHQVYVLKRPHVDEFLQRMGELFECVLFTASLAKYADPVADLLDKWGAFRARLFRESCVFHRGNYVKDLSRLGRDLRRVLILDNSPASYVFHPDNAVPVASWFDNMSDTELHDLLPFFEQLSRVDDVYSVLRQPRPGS

[23] = target: Eukaryotic translation initiation factor 4E (Mus musculus, UniProt P63073); assay: blockers of eIF4G binding by eIF4E – biochemical, TR-FRET, dose response (AID 855); type: functional;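 note: potency for disrupting eIF4E binding to eIF4GI seen as loss of FRET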
Chain of Eukaryotic translation initiation factor 4E (P63073 whole entry): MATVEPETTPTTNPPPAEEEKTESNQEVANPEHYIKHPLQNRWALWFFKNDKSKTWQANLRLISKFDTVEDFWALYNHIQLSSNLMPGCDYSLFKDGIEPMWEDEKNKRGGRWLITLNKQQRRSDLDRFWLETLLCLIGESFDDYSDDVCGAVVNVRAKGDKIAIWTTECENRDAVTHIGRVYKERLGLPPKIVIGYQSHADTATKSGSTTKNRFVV

In the case of `CCC(C)(C(=O)NC1CCCC1)N(Cc1ccco1)C(=O)Cc1cccs1` (stereo unspecified), the IC50 [1] is reported as > 35 µM (not active) and the IC50 [2] is reported as > 35 µM (not active).
For `Cc1ccc(NC(=S)c2nc3ccccc3s2)cc1`, the AC50 [3] was 0.0251 µM (inconclusive), the AC50 [4] was 22.4 µM (inconclusive) and the IC50 [5] was > 100 µM (inactive). For the same molecule, the EC50 [6] was 0.46 µM (active) and the AC50 [7] was 10 µM (inconclusive).
In the case of `CC(C)C(=O)N1CCN(c2ccc(NC(=O)c3ccc4c(c3)OCCO4)cc2Cl)CC1`, the EC50 [8] is reported as 9.21 µM (active), the EC50 [9] is reported as 18.5 µM (active) and the AC50 [10] is reported as 19.1 µM (active). The AC50 [11] was 22.6 µM (active), the IC50 [12] was > 100 µM (active) and the EC50 [13] was 9.2 µM (active). The AC50 [14] was 17.7 µM (active), the AC50 [15] was 16 µM (active) and the AC50 [16] was 10.7 µM (active).
For `CCN(C(=O)C(C)N1C(=O)/C(=C/c2ccco2)SC1=S)C1CCS(=O)(=O)C1` (stereo unspecified), the IC50 [17] was 0.419 µM (active), the IC50 [18] was > 12.1 µM (not active) and the IC50 [19] was 3.79 µM (active). The IC50 [20] was > 109 µM (not active) and the IC50 [21] was 11.1 µM (active).
For `N#Cc1ccc(/C=C/C(=O)c2ccc3c(c2)OCO3)cc1`, the IC50 [12] was > 100 µM (active).
With `O=C(/C=C/c1ccco1)N(c1ccccn1)c1ccccn1` the IC50 [22] was 3.29 µM (active), the IC50 [18] was 19.8 µM (not active) and the IC50 [23] was 50 µM (inactive). For the same molecule, the IC50 [20] was > 109 µM (not active).
